The target of this experiment is T1, Gag-Pol polyprotein [489-587] (Human immunodeficiency virus 1, UniProt P04585).
T1 construct: 489-587
The experiment in a line: Inhibitory concentration against human immunodeficiency virus-1 protease; (Dimerization inhibitor).

We go through 1 molecule from BindingDB's records for doi:10.1021/jm049581j (Purdue University, 2005).

`CC[C@@H](C)[C@H](NC(=O)[C@H](CCC(N)=O)NC(=O)C1CCCN1C(=O)CCCCCCCCCCCCCCC(=O)N[C@@H](CO)C(=O)N[C@H](C(=O)N[C@@H](CC(C)C)C(=O)N[C@@H](CC(N)=O)C(=O)N[C@@H](Cc1ccccc1)C(=O)O)[C@H](C)O)C(=O)N[C@H](C(=O)N[C@@H](CC(C)C)C(=O)N[C@@H](Cc1c[nH]c2ccccc12)C(=O)O)[C@H](C)O` (some centres not stated): the IC50 amounted to 350 nM and the Ki was determined as 220 nM.
